{"source": "patent US20080255134A1", "about": "(Artesian Therapeutics, Inc., priority 2004, published 2008)", "key": {"[1]": {"test_system": "White New Zealand male rabbits", "test": "In vivo hemodynamic effects of compounds administered alone (Protocol 2)", "set-up": "species or system rabbit", "details": "for mean arterial pressure: doses that completely diminished isoproterenol-dependent increase in heart rate, Protocol 2, FIG. 15; for left ventricular contractility when administered alone: protocol 2, relative to control, FIGS. 2, 12", "description": "(§1) Studies were performed on White New Zealand male rabbits (2-3 kg weight). Animals were initially anesthetized with ketamine (50 mg/kg; IM) and xylazine (6 mg/kg, IM). Subsequently, animals were intubated (via tracheotomy; 3 mm tube) and ventilated with 2% isoflurane (mixed in 95% O2+5% CO2). Each rabbit was instrumented for LV pressure (3F Millar catheter) through right carotid artery, arterial pressure (3F catheter, Cook Instruments) through left femoral artery, which was connected to a fluid-filled pressure transducer (BD Instruments), and ECG. Both pressure transducers were zeroed against atmospheric pressure, and calibrated before each study using an analog manometer. Upon completion of instrumentation, isoflurane was reduced to 1.25%, and the animal was covered for maintenance of body core temperature. Arterial and LV blood pressures (LVP) and the ECG signals were simultaneously digitally recorded on a PC. The recording system (Gould Instruments) and the corresponding software (Ponema, Gould Instruments) facilitated detailed calculation of various parameters directly from all signals and record on a separate file with a 1 sec resolution. Upon completion of the study protocol, rabbits were euthenized by isoflurane overdose (5% for at least 1 minute) and cardiac arrest through IV infusion of 5 ml 3 molar potassium chloride.\n(§2) Once the physiological variables were stable, effects of each drug on hemodynamics and ECG were determined based on two different protocols: 1) infusion of a compound of the present invention to determine the effects of the compound itself mainly on contractility, and other hemodynamic indices; and 2) infusion of a compound of the present invention while the system was challenged with 0.5 ug/kg isoproterenol to determine the beta-adrenergic antagonism properties of each tested compound.\n(§3) White New Zealand male rabbits (2-3 kg) were anesthetized and ventilated (95% O2+5% CO2) with 1.25% isoflurane. Each animal was instrumented for LV pressure (Millar, through left carotid artery), arterial pressure (left femoral artery), infusion (jugular vein), and electrocardiogram. The animals were administered intravenously based on one of these protocols:\nProtocol 2: PDE3 inhibition (effects of compounds when administered alone)."}, "[2]": {"test_system": "α1-adrenergic receptor", "test": "Non-selective α1-adrenergic receptor assay using rat forebrain membranes", "assay_type": "binding", "description": "(§4) The ability of Compounds 25 and 8c to inhibit PDE3 and β-adrenergic receptor activity was examined both in vitro and in vivo. […] Non-selective β-adrenergic and β1-adrenergic radioligand binding assays were performed using rat cortical membranes; β2-adrenergic receptor assays were performed using membranes isolated from CHO cells expressing human, recombinant b2-adrenergic receptor; non-selective α1-adrenergic receptor assays were performed using rat forebrain membranes; and PDE3 binding assays were performed on human platelets. Values in percent illustrate percent inhibition at 1000 nM concentration."}, "[3]": {"target": "T1, β1-adrenergic receptor (Rattus norvegicus, UniProt P18090)", "T1 construct": "from tissue; host or cells: rat cortical membranes", "T1 sequence (P18090 whole entry)": "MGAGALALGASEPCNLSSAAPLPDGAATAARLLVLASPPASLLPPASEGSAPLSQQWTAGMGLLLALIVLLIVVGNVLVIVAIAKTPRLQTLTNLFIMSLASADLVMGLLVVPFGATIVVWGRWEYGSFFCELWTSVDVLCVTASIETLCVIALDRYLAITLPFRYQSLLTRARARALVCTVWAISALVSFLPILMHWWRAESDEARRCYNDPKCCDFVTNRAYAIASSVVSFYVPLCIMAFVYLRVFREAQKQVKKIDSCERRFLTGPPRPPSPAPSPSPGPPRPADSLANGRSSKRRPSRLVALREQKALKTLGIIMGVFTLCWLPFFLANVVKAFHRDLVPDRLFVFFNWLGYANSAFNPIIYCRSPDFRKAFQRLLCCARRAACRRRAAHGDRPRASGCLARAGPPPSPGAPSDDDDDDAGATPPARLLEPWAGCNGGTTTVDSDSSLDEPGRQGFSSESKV", "test": "β1-adrenergic radioligand binding assay using rat cortical membranes", "description": "(§5) Non-selective β-adrenergic and β1-adrenergic radioligand binding assays were performed using rat cortical membranes; β2-adrenergic receptor assays were performed using membranes isolated from CHO cells expressing human, recombinant b2-adrenergic receptor; non-selective α1-adrenergic receptor assays were performed using rat forebrain membranes; and PDE3 binding assays were performed on human platelets. Values in percent illustrate percent inhibition at 1000 nM concentration."}, "[4]": {"test_system": "White New Zealand male rabbits", "test": "In vivo β-adrenergic blockade, isoproterenol challenge (Protocol 1)", "set-up": "species or system rabbit", "details": "for decrease of left ventricular contractility (% of isoproterenol effect): doses that completely diminished isoproterenol-dependent increase in heart rate: atenolol 1 mg/kg, carvedilol 0.3 mg/kg, Compound 8c 1 mg/kg, mean±SEM", "description": "as §1, §2, §3\nProtocol 1: β-adrenergic blockade (isoproterenol challenge)."}, "[5]": {"test_system": "naive anesthetized canines", "test": "Contractility in naive anesthetized canines (protocol 2)", "assay_type": "in vivo, canine", "details": "administered alone (protocol 2), FIG. 17"}, "[6]": {"test_system": "isolated ventricular myocytes", "test": "Sarcomere shortening (contractility) in isolated ventricular myocytes", "assay_type": "cell-based, rabbit", "description": "[…] Isoproterenol, a potent β-Adrenergic agonist, can produce large increases in cardiac contraction, calcium transient amplitude, and the rates of relaxation (acceleration of relaxation or lusitropic effect). The effects of isoproterenol are then antagonized with different concentrations of a compound of the present invention.\nCardiac myocytes were digested from healthy white New Zealand male rabbits (3-5 lbs), with enzymatic digestion. Briefly, each animal is anesthetized with ketamine (50 mg/kg) and xylazine (6 mg/kg)-IM injection in hind limb. Once the animal was sedated (˜10-15 min), 0.1-0.3 ml of pentobarbital was injected into the ear vein. The heart was exposed by a cut just below the rib-cage and bilateral thoracotomy and removed rapidly ensuring that aorta remains intact. The heart was immediately placed in oxygenated NT with Ca^2+ placed on ice for rinsing the blood out, cleared from vessels and pericardium, cannulated and maintained at 37° C. The heart was retrogradedly perfused and tissue digested with collagenase and protease. Digested myocytes were subsequently stored in 0.1 mM Ca^2+ normal tyrodes for further analyses. Sarcomere length changes upon treatment with test compounds were recorded at 37° C. in the presence of 2 mM calcium and analyzed with an IonOptix system. Sarcomere length data was acquired for each myocyte over an average of 10 beats duration, at pacing rates of 1, 2, and 3 Hz. Basal percent sarcomere shortening and length-frequency relation of each myocyte was evaluated, and serve as a measure of cellular viability.\nIn vitro studies were performed using rabbit ventricular tissue, to examine the effects of Compounds 25 and 8c on myocyte contractility. New Zealand male rabbits (1.5-2.5 kg) were anesthetized with ketamine (50 mg/kg) and xylazine (6 mg/kg)-IM. The heart was exposed and removed rapidly to ensure that the aorta remained intact. The ventricular tissue was digested enzymatically. Sarcomere shortening was measured in the presence of 2 mM calcium at 37° C. using an IonOptix system; reported values were at 2 Hz pacing frequency."}, "[7]": {"test_system": "human fetal cardiac fibroblasts", "test": "Cyclic-AMP production by fluorescence (intrinsic sympathomimetic activity)", "assay_type": "cell-based", "details": "IBMX (750 μM) present; compared to isoproterenol or forskolin; any concentration tested", "description": "The effect of Compound 8c on cyclic-AMP production was determined in human fetal cardiac fibroblasts by fluorescence, presented in FIG. 18 as [F−Fo)/Fo], mean±SEM, N=4. IBMX (750 μM) was present in all assays."}, "[8]": {"target": "T2, PDE3 (Homo sapiens, UniProt Q14432)", "T2 construct": "from tissue; host or cells: human platelets", "T2 sequence (Q14432 whole entry)": "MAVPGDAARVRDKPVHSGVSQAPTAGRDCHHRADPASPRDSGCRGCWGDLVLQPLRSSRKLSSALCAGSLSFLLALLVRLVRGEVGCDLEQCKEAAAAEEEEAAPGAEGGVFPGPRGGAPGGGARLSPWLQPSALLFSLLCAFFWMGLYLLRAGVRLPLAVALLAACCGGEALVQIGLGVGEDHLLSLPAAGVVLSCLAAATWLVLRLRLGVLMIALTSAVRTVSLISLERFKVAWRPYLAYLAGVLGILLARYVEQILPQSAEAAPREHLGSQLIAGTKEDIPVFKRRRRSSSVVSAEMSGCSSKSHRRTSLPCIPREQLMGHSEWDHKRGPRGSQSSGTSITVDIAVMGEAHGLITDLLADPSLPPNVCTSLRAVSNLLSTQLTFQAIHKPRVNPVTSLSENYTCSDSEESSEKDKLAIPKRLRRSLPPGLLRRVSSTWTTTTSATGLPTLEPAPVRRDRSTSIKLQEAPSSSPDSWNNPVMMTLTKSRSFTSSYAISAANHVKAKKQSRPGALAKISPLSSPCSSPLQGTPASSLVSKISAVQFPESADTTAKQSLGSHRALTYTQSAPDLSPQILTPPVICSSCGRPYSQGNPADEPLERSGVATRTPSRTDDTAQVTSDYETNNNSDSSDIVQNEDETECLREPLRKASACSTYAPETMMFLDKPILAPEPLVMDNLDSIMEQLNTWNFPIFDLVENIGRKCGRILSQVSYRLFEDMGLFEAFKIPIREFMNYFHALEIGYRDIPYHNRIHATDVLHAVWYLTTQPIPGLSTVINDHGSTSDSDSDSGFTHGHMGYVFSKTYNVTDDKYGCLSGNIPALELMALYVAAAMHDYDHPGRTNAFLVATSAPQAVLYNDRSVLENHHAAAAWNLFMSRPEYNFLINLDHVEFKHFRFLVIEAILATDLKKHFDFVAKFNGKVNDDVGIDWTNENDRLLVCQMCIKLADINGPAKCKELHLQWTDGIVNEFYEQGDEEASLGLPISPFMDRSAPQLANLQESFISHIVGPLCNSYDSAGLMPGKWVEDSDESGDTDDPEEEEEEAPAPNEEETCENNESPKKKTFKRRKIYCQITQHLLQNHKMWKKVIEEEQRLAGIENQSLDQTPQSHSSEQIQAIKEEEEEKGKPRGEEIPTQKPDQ", "test": "In vitro assay for cAMP PDE-3 inhibitory activity", "assay_type": "biochemical", "description": "Human platelet cyclic AMP phosphodiesterase was prepared according to the method of Alvarez et al., Mol. Pharmacol. 29: 554 (1986). The PDE incubation medium contained 10 mM Tris-HCl buffer, pH 7.7, 10 mM MgSO4, and 1 μM […] (0.2 μCi) in a total volume of 1.0 mL. Test compounds were dissolved in DMSO immediately prior to addition to the incubation medium, and the resulting mixture was allowed to stand for 10 minutes prior to the addition of enzyme. Following the addition of PDE, the contents were mixed and incubated for 10 minutes at 30° C. Three assays each were performed for each of five test compound concentrations, the mean of the determinations (n=3) at each concentration was plotted, and IC50 values were determined graphically.\nas §4"}, "[9]": {"target": "T3, human recombinant beta-2 receptors (Homo sapiens, UniProt P07550)", "T3 construct": "expressed in transfected cells; host or cells: CHO-WT21 cells", "T3 sequence (P07550 whole entry)": "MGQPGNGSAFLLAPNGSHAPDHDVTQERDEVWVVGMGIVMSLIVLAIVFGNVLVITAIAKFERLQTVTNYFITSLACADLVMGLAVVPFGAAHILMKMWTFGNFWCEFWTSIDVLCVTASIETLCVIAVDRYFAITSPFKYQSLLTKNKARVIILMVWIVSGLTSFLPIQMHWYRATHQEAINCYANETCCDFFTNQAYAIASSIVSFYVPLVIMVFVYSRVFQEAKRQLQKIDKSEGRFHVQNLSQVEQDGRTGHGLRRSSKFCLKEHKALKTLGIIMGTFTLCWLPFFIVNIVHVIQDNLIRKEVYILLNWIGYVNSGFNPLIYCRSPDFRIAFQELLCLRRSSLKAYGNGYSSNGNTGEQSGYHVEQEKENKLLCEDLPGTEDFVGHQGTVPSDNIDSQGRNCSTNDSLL", "test": "β2-receptor radioligand binding, [125I] iodocyanopindolol, CHO-WT21 cells", "description": "as §5"}, "[10]": {"target": "beta-receptors from rat cortical membranes", "test": "Non-specific β-receptor radioligand binding, [3H]DHA", "details": "read-out: Non-selective β-adrenergic IC50", "description": "as §5"}, "[11]": {"test_system": "White New Zealand male rabbits", "test": "In vivo β-adrenergic blockade, isoproterenol challenge (Protocol 1)", "set-up": "species or system rabbit; dose or concentration left out as unconfirmed", "details": "during isoproterenol challenge, intravenous, FIG. 10"}, "[12]": {"target": "T4, human recombinant beta-1 receptors (Homo sapiens, UniProt P08588)", "T4 construct": "expressed in transfected cells; host or cells: CHO-REX16 cells", "T4 sequence (P08588 whole entry)": "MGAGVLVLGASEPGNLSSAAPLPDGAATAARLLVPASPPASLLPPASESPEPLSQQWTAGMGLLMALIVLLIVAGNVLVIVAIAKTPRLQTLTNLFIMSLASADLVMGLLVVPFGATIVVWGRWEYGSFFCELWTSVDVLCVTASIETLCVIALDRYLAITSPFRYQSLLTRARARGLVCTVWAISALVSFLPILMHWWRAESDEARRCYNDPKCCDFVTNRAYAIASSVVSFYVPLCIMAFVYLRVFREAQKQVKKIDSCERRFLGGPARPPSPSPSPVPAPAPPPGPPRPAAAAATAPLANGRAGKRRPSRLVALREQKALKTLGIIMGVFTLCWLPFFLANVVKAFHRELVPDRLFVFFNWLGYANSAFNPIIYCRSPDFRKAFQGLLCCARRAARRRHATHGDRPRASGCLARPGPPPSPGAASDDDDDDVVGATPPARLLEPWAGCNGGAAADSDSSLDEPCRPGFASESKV", "test": "β1-receptor radioligand binding, [125I] iodocyanopindolol, CHO-REX16 cells", "details": "at 100 nM", "description": "[…] receptor binding was measured in human recombinant beta-1 receptors expressed in CHO-REX16 cells, using [^125I] (-) iodocyanopindolol (2000 Ci/mmol) as the radioligand, as described in Kalaria et al., J. Neurochem. 53: 1772-81 (1998), and Minneman et al., Mol. Pharmacol. 16: 34-46 (1979)."}}, "note": "Like-named read-outs stand apart in the source and are kept apart here.", "data": [{"smiles": "CC(C)NCC(O)COc1ccc(CC(N)=O)cc1", "note": "(stereo not drawn) [Atenolol, reference compound]", "values": [{"measurement": "mean arterial pressure", "setting": "[1]", "result": "decreased mean arterial pressure"}, {"measurement": "left ventricular contractility when administered alone", "setting": "[1]", "result": "decreased contractility"}, {"measurement": "α1-adrenergic IC50, nM", "setting": "[2]", "result": "inactive"}, {"measurement": "inhibition at 1 µM", "setting": "[3]; at 1000 nM concentration, read-out: β1-adrenergic percent inhibition", "result": 23, "unit": "%"}, {"measurement": "decrease of left ventricular contractility (% of isoproterenol effect)", "setting": "[4]", "result": "82±2", "unit": "%"}]}, {"smiles": "COc1ccccc1OCCNCC(O)COc1cccc2[nH]c3ccccc3c12", "note": "(stereo not drawn) [Carvedilol, reference compound]", "values": [{"measurement": "mean arterial pressure", "setting": "[1]", "result": "decreased mean arterial pressure"}, {"measurement": "left ventricular contractility when administered alone", "setting": "[1]", "result": "decreased contractility"}, {"measurement": "IC50", "setting": "[2]", "result": "[…]"}, {"measurement": "contractility in naive anesthetized canines", "setting": "[5]", "result": "decreased this parameter at the higher doses"}, {"measurement": "contractility (LV+dP/dtmax) at ED50", "setting": "[4]; Compound 25 0.3 mg/kg, carvedilol 0.1 mg/kg, Protocol 1, FIG. 13", "result": "decreased this parameter"}, {"measurement": "ED50", "setting": "[4]; Oryctolagus cuniculus, isoproterenol challenge (0.5 μg/kg), intravenous, read-out: ED50, dose that diminished isoproterenol-dependent increase in HR by 50%", "result": 0.1, "unit": "mg/kg"}, {"measurement": "relaxation properties (Tau) at ED50", "setting": "[4]; compared to control, Protocol 1, FIG. 13", "result": "negative lusitropic effect"}, {"measurement": "decrease of left ventricular contractility (% of isoproterenol effect)", "setting": "[4]", "result": "82±7", "unit": "%"}]}, {"smiles": "O=C1CCC(c2ccc(OCC(=O)N3CCC(NC[C@H](O)COc4ccccc4Cl)CC3)c(Cl)c2)=NN1", "note": "[Compound 8c, 6-[3-Chloro-4-(2-{4-[3-(2-chloro-phenoxy)-2-hydroxy-propylamino]-piperidin-1-yl}-2-oxo-ethoxy)-phenyl]-4,5-dihydro-2H-pyridazin-3-one]", "values": [{"measurement": "blocking of isoproterenol effect on myocyte contractility", "setting": "[6]; 0.1 μM isoproterenol (not shown)", "result": "blocking the effects of 0.1 mM isoproterenol"}, {"measurement": "contractility (sarcomere shortening) in isolated ventricular myocytes", "setting": "[6]; 2 mM calcium, 37° C., 2 Hz pacing frequency", "result": "increased contractility"}, {"measurement": "heart rate when administered alone", "setting": "[1]; Protocol 2, with and without atropine and bilateral vagotomy (FIG. 16)", "result": "did not increase heart rate"}, {"measurement": "mean arterial pressure", "setting": "[1]", "result": "did not have a significant effect"}, {"measurement": "left ventricular contractility when administered alone", "setting": "[1]", "result": "increased or maintained contractility in a dose-dependent manner"}, {"measurement": "intrinsic sympathomimetic activity (cyclic-AMP production)", "setting": "[7]", "result": "did not possess intrinsic sympathomimetic activity"}, {"measurement": "IC50", "setting": "[8]; human platelet cyclic AMP phosphodiesterase, bound stated, read-out: PDE3 inhibition IC50", "result": "< 1000", "unit": "nM"}, {"measurement": "IC50", "setting": "[8]; human platelets, read-out: PDE3 IC50", "result": 150, "unit": "nM"}, {"measurement": "inhibition at 0.1 µM", "setting": "[9]; at 100 nM", "result": "> 25", "unit": "%"}, {"measurement": "IC50", "setting": "[9]; membranes from CHO cells expressing human recombinant β2-adrenergic receptor", "result": 0.8, "unit": "nM"}, {"measurement": "IC50", "setting": "[10]", "result": 14, "unit": "nM"}, {"measurement": "IC50", "setting": "[2]", "result": 226, "unit": "nM"}, {"measurement": "β-adrenergic antagonism on left ventricular contractility", "setting": "[11]", "result": "potent dose-dependent β-adrenergic antagonism"}, {"measurement": "IC50", "setting": "[3]", "result": 5, "unit": "nM"}, {"measurement": "inhibition at 0.1 µM", "setting": "[12]", "result": "> 25", "unit": "%"}, {"measurement": "decrease of left ventricular contractility (% of isoproterenol effect)", "setting": "[4]", "result": "73±4", "unit": "%"}, {"measurement": "β-adrenergic antagonism on heart rate (HR)", "setting": "[4]; during isoproterenol challenge (0.5 μg/kg), FIG. 11", "result": "dose-dependent β-adrenergic antagonism"}]}]}
